# Measurements published in ChEMBL document CHEMBL1145671, “Cactus Alkaloids. LIII. Coryphanthine and O-Methyl-Candicine, Two New Quaternary Alkaloids from Coryphantha greenwoodii” (J Nat Prod, 1983).
# Where a name gives a salt, the structure may show the parent alone.
# Test system: not listed separately
# Assay: (§1) Toxicity against brine shrimp assessed as impaired swimming movements after 24 hrs
# Type: organism-based, Artemia
# Details: artemia, in vivo
row,SMILES,LC50 at 24 h
1,CN1CCC[C@H]1c1cccnc1 [NICOTINE HYDROCHLORIDE],158 µg/mL
2,COC(C[N+](C)(C)C)c1ccccc1 (racemic),368 µg/mL
3,C[N+](C)(C)CCc1ccc(O)cc1 [CANDICINE CHLORIDE],923 µg/mL
4,O=C1C[C@@H]2OCC=C3CN4CC[C@]56c7ccccc7N1[C@H]5[C@H]2[C@H]3C[C@H]46 [STRYCHNINE SULFATE],164 µg/mL
5,COc1ccc(CC[N+](C)(C)C)cc1,425 µg/mL
6,CO[C@H](C[N+](C)(C)C)c1ccccc1,354 µg/mL

# Test system: Artemia
# Assay: as §1
# Type: organism-based
# Details: Artemia, 24 h
row,SMILES,IC50
1,C[N+](C)(C)CC(O)c1ccccc1.[Cl-] (centres undefined),> 1000 µg/mL
2,C[N+](C)(C)CCO.[Cl-] [CHOLINE CHLORIDE],> 1000 µg/mL

# Same assay, conditions: artemia, in vivo, 24 h
row,SMILES,LC50
1,CO[C@H](C[N+](C)(C)C)c1ccccc1.[Cl-] [CORYPHANTHINE CHLORIDE],494 µg/mL
